Assays:
COLO-205 = assay: Xenograft model, COLO-205; format: in vivo, mouse; conditions: i.p., 12 days
Excerpt: (§1) In Vivo Anti-Neoplastic (or Anti-Tumour) Effect of HDAC Inhibiting Agents
(§2) The efficacy of the selected compounds of the invention can then be determined using in vivo animal (mouse) xenograft studies. The animal xenograft model is one of the most commonly used in vivo cancer models for studying the pharmaceutically effective dosage, administration route, frequency and interval.
(§3) Athymic nude mice (Female, 5-6 week old, BALB/c, nu/nu, approximately 18-20 g body weight) are obtained from Vital River. The animals are kept on a 12 h light/dark cycle (0700-1900); food and water are provided ad libitum. All in vivo experiments are carried out in a specific pathogen-free facility (22° C.). The human cancer […] transplant model in athymic nude mice is constructed using xenograft cell lines colon cancer cell line colo205, breast cancer cell line MDA-MB435, and lung cancer cell line A549, all obtained from ATCC. Cultured cells are removed from culture plate wall by digestion, collected and suspended in cell culture medium containing no FBS, at a concentration of 5×10^6/0.2 ml, and brought to animal facility on ice. is 0.2 ml cell suspension is given to mice via rear left auxilliary subcutaneous scapular injection, using Size 6 needle. Animals are measured every 2-3 days on the size of tumor formation. After two weeks, those tumors that have been well grown without leak are removed from animals under sterile condition, split into several small fractions (2-3 mm in diameter), and injected s.c. into the rear left auxilliary subcutaneous scapular of animals. […] While the animas being treated, body weight of the animal and size of the tumor are measured every 3 days, with mortality also recorded. […] Tumors are removed, weighed, and measured. […] Tumor-inhibition rate, mortality, as well as relative tumor proliferationrate T/C (%) are calculated. […]
(§4) Significant differences in tumor growth rate were determined by analysis of variance (Table 5).

HL-60 = assay: Xenograft model, HL-60; format: in vivo, mouse; conditions: i.p.
MDA-MB-435 = assay: Xenograft model, MDA-MB-435; format: in vivo, mouse; conditions: i.p., 15 days
Excerpt: as §1, §2, §3, §4

MDAMB435 = assay: Cell-based proliferation assay (SRB), MDAMB435; conditions: Homo sapiens
Procedure: (§5) Cell-Based Proliferation Assay for Determination of GI50 Values
(§6) A rapid multiwell plate assay using Sulforhodamine B (SRB) protein stain was adopted to evaluate the growth inhibitory effects of the compounds of the present invention. The screening panel of cancer cell lines includes Colo205 and HCT116 colon cancer cells, MDA-MB231 and MDA-MB435 chest cancer cells, A549 lung cancer cells, and Chinese hamster ovary cell line CHO, which were obtained from ATCC.
(§7) The cell line Colo205 is grown in RPMI 1640 medium containing 2 mM L-glutamine, 5% fetal bovine serum, and 1.0 mM sodium pyruvic acid. Cell lines A549 and MDA-MB231 are grown in RPMI 1640 medium containing 2 mM L-glutamine and 5% fetal bovine serum. The cell line MDA-MB435 is grown in DMEM medium containing 2 mM L-glutamine and 5% fetal bovine serum. The cell lines HCT 116 is grown in IMEM medium containing 2 mM L-glutamine and 5% fetal bovine serum. The CHO cell line, used as a normal control on toxicity, is grown in a special medium for cell line. For a typical screening experiment, A549 and Colo205 cells are inoculated into 96-well microtiter plates, with 100 μL per well, and 2000 and 5000 cells per well respectively for either cell line. MDA-MB435, HCT116, MDA-MB231 and CHO cells are also inoculated into 96-well microtiter plates, with 6000 cells per well. After cell inoculation, the microtiter plates are incubated at 37° C., 5% CO2, and 100% relative humidity for 24 hr in order to make cells adhere to well wall.
(§8) After 24 h incubation or time zero for drug addition, with each cell line 50 μl of cold 50% (w/v) TCA is added to wells used for control to fix cells in situ. Also at time zero, cells in other wells are treated with 100 μl of compound of different concentrations for 24 hr, 48 hr, and 72 hr respectively, with varying final compound concentration (0.1 μM, 1 μM, 5 μM 10 μM). For each treatment duration at each compound concentration, there are triplicate wells, as well as an array of control wells including a blank control well (cell culture medium only, no cells), a no-compound control well (adding same volume of cell culture medium but no compound), a positive control well (treated with Suberoylanilide hydroxamic acid (SAHA)), and normal cell well control (CHO cells). Following the addition of compounds, cell plates are incubated for 24 h, 48 h or 72 h per treatment group at 37° C., 5% CO2, and 100% relative humidity. The Treatment is then terminated by addition of cold TCA and incubation of 1 hr at 4° C. The supernatant is discarded, and all wells are washed five times with de-ioned water and air dried. Then each well is added with 100 μl sulforhodamine B (SRB) solution (0.4% (w/v) made in 1% acetic acid) and cell plates are incubated for 20-30 minutes at room temperature. After staining, unbound dye is removed by washing five times with 1% acetic acid and the plates are air dried. Bound stain is subsequently solubilized with 10 mM (200 μL) Tris base with the help of 5 min platform vibration or pipetting up and down, and the absorbance is read on an automated plate reader (M5 detection system, MD Group Ltd.) at a wavelength of 565 nm (calibrated zero reading of blank control at wavelength of 690 nm). The analytical software, XL-fit has been used to generate GI50 from a series of data thus obtained.

SKOV-3 [1] = assay: Xenograft model, SKOV-3; format: in vivo, mouse; conditions: i.p.
PC-3 = assay: Xenograft model, PC-3; format: in vivo, mouse; conditions: i.p., 15 days
BXPC-3 = assay: Cell-based proliferation assay (SRB), BXPC-3; conditions: Homo sapiens
Colo205 = assay: Cell-based proliferation assay (SRB), Colo205; conditions: Homo sapiens
Procedure: as §5, §6, §7, §8

SKOV-3 [2] = assay: Cell-based proliferation assay (SRB), SKOV-3; conditions: Homo sapiens
Procedure: as §5, §6, §7, §8

SMILES | GI50 (MDAMB435; MDA-MB-435, Table 3) | GI50 (MDAMB435; MDA-MB-435, Table 4) | GI50 (BXPC-3; BXPC-3, Table 3) | GI50 (Colo205; COLO 205, Table 3) | GI50 (Colo205; COLO 205, Table 4) | GI50 (SKOV-3 [2]; SK-OV-3, Table 3) | GI50 (SKOV-3 [2]; SK-OV-3, Table 4) | also measured
CCCCCNc1cc(/C=C/C(=O)NO)ccc1SCCN(CC)CC [Example 2, 3-(4-(2-(diethylamino)ethylthio)-3-(pentylamino)phenyl)-N-hydroxy-acrylamide] | 3.1 µM | 3.1 µM | 6.89 µM | 4.23 µM | 4.23 µM | 5.46 µM | 5.46 µM | T/C(%) COLO-205 (COLO-205; 200 mg/kg): 42% (200,12); T/C(%) HL-60 (HL-60; 200 mg/kg, 15 days): 40% (200,15); T/C(%) MDA-MB-435 (MDA-MB-435; 200 mg/kg): >60% (200,15); T/C(%) SKOV-3 (SKOV-3 [1]; 200 mg/kg, 21 days): 45% (200,21); T/C(%) PC-3 (PC-3; 200 mg/kg): 43% (200,15)
O=C(CCCCCCC(=O)Nc1ccccc1)NO [SAHA, suberoylanilide hydroxamic acid, reference compound] | 4.1 µM | – | 5.68 µM | 3.15 µM | – | 3.56 µM | – | T/C(%) COLO-205 (COLO-205; 80 mg/kg): >60% (80,12); T/C(%) HL-60 (HL-60; 80 mg/kg, 10 days): 45% (80,10); T/C(%) MDA-MB-435 (MDA-MB-435; 80 mg/kg): >60% (80,15); T/C(%) SKOV-3 (SKOV-3 [1]; 80 mg/kg, 20 days): >60% (80,20); T/C(%) PC-3 (PC-3; 80 mg/kg): 37% (80,15)
CCCCc1nc2cc(/C=C/C(=O)NO)ccc2n1CCN(CC)CC [SB939, reference compound] | 2.65 µM | 2.65 µM | 6.78 µM | 2.41 µM | 2.41 µM | 5.25 µM | 5.25 µM | T/C(%) COLO-205 (COLO-205; 30 mg/kg): 55% (30,12); T/C(%) HL-60 (HL-60; 30 mg/kg, 10 days): 51% (30,10); T/C(%) MDA-MB-435 (MDA-MB-435; 30 mg/kg): 58% (30,15); T/C(%) SKOV-3 (SKOV-3 [1]; 30 mg/kg, 20 days): >60% (30,20); T/C(%) PC-3 (PC-3; 30 mg/kg): >60% (30,15); GI50 (BXPC-3; BXPC-3, Table 4): 6.78 µM
